Results reported in patent US9205077B2, “2-alkoxy-substituted dicyanopyridines and their use” (Bayer Intellectual Property GmbH, priority 2008, dated 2015).

Tests used:
Type in all cases: cell-based
[1] = biological target: T1, adenosine A2b receptor (Homo sapiens, UniProt P29275); experiment: Indirect determination of the adenosine agonism by way of gene expression (luciferase reporter), A2b cells; conditions: CHO cells stably transfected with A2b receptor cDNA; 50% of maximum stimulation of luciferase
T1 construct: expressed in transfected cells; host or cells: CHO (Chinese Hamster Ovary) permanent line, stably transfected
T1 sequence (P29275 1-332): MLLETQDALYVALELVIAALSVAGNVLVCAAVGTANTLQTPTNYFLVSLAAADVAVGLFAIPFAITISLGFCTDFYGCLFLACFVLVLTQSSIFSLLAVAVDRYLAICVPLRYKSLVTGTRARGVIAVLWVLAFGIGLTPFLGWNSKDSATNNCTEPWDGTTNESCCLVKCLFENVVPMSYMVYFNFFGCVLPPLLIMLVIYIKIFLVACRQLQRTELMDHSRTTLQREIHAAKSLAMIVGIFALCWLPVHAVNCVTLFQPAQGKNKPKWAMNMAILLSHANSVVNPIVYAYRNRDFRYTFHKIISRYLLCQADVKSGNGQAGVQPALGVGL
From the text: (§1) B-1. Indirect Determination of the Adenosine Agonism by Way of Gene Expression
(§2) Cells of the CHO (Chinese Hamster Ovary) permanent line are transfected stably with the cDNA for the adenosine receptor subtypes A1, A2a and A2b. The adenosine A1 receptors are coupled to the adenylate cyclase by way of Gi proteins, while the adenosine A2a and A2b receptors are coupled by way of Gs proteins. In correspondence with this, the formation of cAMP in the cell is inhibited or stimulated, respectively. After that, expression of the luciferase is modulated by way of a cAMP-dependent promoter. The luciferase test is optimized, with the aim of high sensitivity and reproducibility, low variance and good suitability for implementation on a robot system, by varying several test parameters, such as cell density, duration of the growth phase and the test incubation, forskolin concentration and medium composition. The following test protocol is used for pharmacologically characterizing cells and for the robot-assisted substance screening:
(§3) The stock cultures are grown, at 37° C. and under 5% CO2, in DMEM/F12 medium containing 10% FCS (fetal calf serum) and in each case split 1:10 after 2-3 days. Test cultures are seeded in 384-well plates with 2000 cells per well and grown at 37° C. for approx. 48 hours. The medium is then replaced with a physiological sodium chloride solution (130 mM sodium chloride, 5 mM potassium chloride, 2 mM calcium chloride, 20 mM HEPES, 1 mM magnesium chloride hexahydrate, 5 mM sodium bicarbonate, pH 7.4). The substances to be tested, which are dissolved in DMSO, are pipetted into the test cultures (maximum final concentration of DMSO in the test mixture: 0.5%) in a dilution series of from 5×10^−11 M to 3×10^−6 M (final concentration). 10 minutes later, forskolin is added to the A1 cells and all the cultures are subsequently incubated at 37° C. for four hours. After that, 35 μl of a solution which is composed of 50% lysis reagent (30 mM disodium hydrogenphosphate, 10% glycerol, 3% TritonX100, 25 mM TrisHCl, 2 mM dithiotreitol (DTT), pH 7.8) and 50% luciferase substrate solution (2.5 mM ATP, 0.5 mM luciferin, 0.1 mM coenzyme A, 10 mM tricine, 1.35 mM magnesium sulphate, 15 mM DTT, pH 7.8) are added to the test cultures, which are shaken for approx. 1 minute and the luciferase activity is measured using a camera system. The EC50 values are determined, i.e., the concentrations at which 50% of the luciferase response is inhibited in the case of the A1 cell, and, respectively, 50% of the maximum stimulation with the corresponding substance is achieved in the case of the A2b and A2a cells. […] Pharmacol., 357, 1-9 (1998)).

[2] = biological target: T2, adenosine A2a receptor (Homo sapiens, UniProt P29274); experiment: Indirect determination of the adenosine agonism by way of gene expression (luciferase reporter), A2a cells; conditions: CHO cells stably transfected with A2a receptor cDNA; 50% of maximum stimulation of luciferase
T2 construct: expressed in transfected cells; host or cells: CHO (Chinese Hamster Ovary) permanent line, stably transfected
T2 sequence (P29274 whole entry): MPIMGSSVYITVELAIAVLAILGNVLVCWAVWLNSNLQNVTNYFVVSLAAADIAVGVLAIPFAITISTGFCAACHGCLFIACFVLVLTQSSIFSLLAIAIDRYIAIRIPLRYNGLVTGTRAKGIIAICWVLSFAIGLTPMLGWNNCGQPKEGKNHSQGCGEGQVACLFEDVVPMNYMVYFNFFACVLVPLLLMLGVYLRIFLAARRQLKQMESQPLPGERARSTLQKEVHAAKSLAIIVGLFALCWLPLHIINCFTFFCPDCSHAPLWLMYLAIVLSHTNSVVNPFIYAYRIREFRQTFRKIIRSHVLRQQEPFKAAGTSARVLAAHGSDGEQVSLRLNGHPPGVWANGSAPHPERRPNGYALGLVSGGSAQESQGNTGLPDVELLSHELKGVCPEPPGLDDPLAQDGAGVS
From the text: as §1, §2, §3

[3] = biological target: T3, adenosine A1 receptor (Homo sapiens, UniProt P30542); experiment: Indirect determination of the adenosine agonism by way of gene expression (luciferase reporter), A1 cells; conditions: CHO cells stably transfected with A1 receptor cDNA; 1 μM forskolin; 50% inhibition of luciferase response
T3 construct: expressed in transfected cells; host or cells: CHO (Chinese Hamster Ovary) permanent line, stably transfected
T3 sequence (P30542 1-326): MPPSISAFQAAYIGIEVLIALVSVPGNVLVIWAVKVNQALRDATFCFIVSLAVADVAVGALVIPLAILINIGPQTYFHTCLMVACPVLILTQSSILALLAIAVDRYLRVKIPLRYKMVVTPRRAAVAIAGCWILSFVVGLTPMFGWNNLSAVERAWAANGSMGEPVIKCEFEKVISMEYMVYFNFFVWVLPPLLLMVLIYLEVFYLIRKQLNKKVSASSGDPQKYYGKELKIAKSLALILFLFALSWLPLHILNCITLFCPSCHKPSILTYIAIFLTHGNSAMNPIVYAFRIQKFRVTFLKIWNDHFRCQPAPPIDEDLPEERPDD
From the text: as §1, §2, §3

Row | EC50 [1] [nM] | EC50 [2] [nM] | EC50 [3] [nM] | SMILES
1 | > 3000 | 1110 | 0.8 | COc1cccc(CSc2nc(OC)c(C#N)c(-c3ccc(OCCO)cc3)c2C#N)c1 [Example 11, 4-[4-(2-Hydroxyethoxy)phenyl]-2-methoxy-6-[(3-methoxybenzyl)sulphanyl]pyridine-3,5-dicarbonitrile]
2 | > 3000 | 1740 | 0.3 | CNC(=O)c1cc(CSc2nc(OCCO)c(C#N)c(-c3ccccc3)c2C#N)ccn1 [Example 18, 4-({[3,5-Dicyano-6-(2-hydroxyethoxy)-4-phenylpyridin-2-yl]thio}methyl)-N-methylpyridine-2-carboxamide]
3 | > 3000 | > 3000 | 1.3 | CCCOc1nc(SCc2csc(-c3ccc(Cl)cc3)n2)c(C#N)c(-c2ccccc2)c1C#N [Example 1, 2-({[2-(4-Chlorophenyl)-1,3-thiazol-4-yl]methyl}sulphanyl)-4-phenyl-6-propoxypyridine-3,5-dicarbonitrile]
4 | > 3000 | > 3000 | 5.7 | N#Cc1c(OCCCO)nc(SCc2csc(-c3ccc(Cl)cc3)n2)c(C#N)c1-c1cncs1 [Example 6, 2-({[2-(4-Chlorophenyl)-1,3-thiazol-4-yl]methyl}sulphanyl)-6-(3-hydroxypropoxy)-4-(1,3-thiazol-5-yl)pyridine-3,5-dicarbonitrile]
5 | > 3000 | > 3000 | 4.8 | CCOc1nc(SCc2coc(-c3ccc(Cl)cc3)n2)c(C#N)c(-c2ccc(OCCO)cc2)c1C#N [Example 15, 2-({[2-(4-Chlorophenyl)-1,3-oxazol-4-yl]methyl}sulphanyl)-6-ethoxy-4-[4-(2-hydroxyethoxy)-phenyl]pyridine-3,5-dicarbonitrile]
6 | 105 | 1220 | 0.3 | COc1nc(SCc2csc(-c3ccc(Cl)cc3)n2)c(C#N)c(-c2ccc(OCCO)cc2)c1C#N [Example 8, 2-({[2-(4-Chlorophenyl)-1,3-thiazol-4-yl]methyl}sulphanyl)-4-[4-(2-hydroxyethoxy)phenyl]-6-methoxypyridine-3,5-dicarbonitrile]
7 | 534 | > 3000 | 0.7 | N#Cc1c(OCCCO)nc(SCc2csc(-c3ccc(Cl)cc3)n2)c(C#N)c1-c1ccccc1 [Example 2, 2-({[2-(4-Chlorophenyl)-1,3-thiazol-4-yl]methyl}sulphanyl)-6-(3-hydroxypropoxy)-4-phenylpyridine-3,5-dicarbonitrile]
8 | 177 | 685 | 0.5 | N#Cc1c(OCCO)nc(SCc2csc(-c3ccc(Cl)cc3)n2)c(C#N)c1-c1ccc(OCCO)cc1 [Example 19]
9 | 28.6 | > 3000 | 73.2 | COc1nc(SCc2c[nH]cn2)c(C#N)c(-c2ccc(OCCO)cc2)c1C#N [Example 21, Formic acid 4-[4-(2-hydroxyethoxy)phenyl]-2-[(1H-imidazol-4-ylmethyl)sulphanyl]-6-methoxypyridine-3,5-dicarbonitrile (1:1)]
10 | > 3000 | 527 | 0.8 | CCOc1nc(SCc2csc(-c3ccc(Cl)cc3)n2)c(C#N)c(-c2ccc(OCCO)cc2)c1C#N [Example 16, 2-({[2-(4-Chlorophenyl)-1,3-thiazol-4-yl]methyl}sulphanyl)-6-ethoxy-4-[4-(2-hydroxyethoxy)-phenyl]pyridine-3,5-dicarbonitrile]
11 | > 3000 | 547 | 1.2 | COc1nc(SCc2cccnc2)c(C#N)c(-c2ccc(OCCO)cc2)c1C#N [Example 12, 4-[4-(2-Hydroxyethoxy)phenyl]-2-methoxy-6-[(pyridin-3-ylmethyl)sulphanyl]pyridine-3,5-dicarbonitrile]
12 | 263 | 689 | 0.6 | N#Cc1c(OCCCO)nc(SCc2csc(-c3ccc(Cl)cc3)n2)c(C#N)c1-c1ccc(OCCO)cc1 [Example 3, 2-({[2-(4-Chlorophenyl)-1,3-thiazol-4-yl]methyl}sulphanyl)-4-[4-(2-hydroxyethoxy)phenyl]-6-(3-hydroxypropoxy)pyridine-3,5-dicarbonitrile]
13 | 142 | 1260 | 2.1 | COc1nc(SCc2csc(-c3ccc(Cl)cc3)n2)c(C#N)c(-c2ccc(OC[C@@H](O)CO)cc2)c1C#N [Example 22, 2-({[2-(4-Chlorophenyl)-1,3-thiazol-4-yl]methyl}sulphanyl)-4-(4-{[(2S)-2,3-dihydroxypropyl]-oxy}phenyl)-6-methoxypyridine-3,5-dicarbonitrile]
